From ChEMBL document CHEMBL5537118, “Synthesis of cinnamoyl tethered indoline derivatives with anti-inflammatory and antioxidant activities” (Eur J Med Chem, 2024)
The source made the active and inactive calls. The rule behind the calls is not given here.

What was measured:
Mus musculus [1] = experiment: Antiinflammatory activity in carrageenan-induced Kunming mouse model of paw edema assessed as paw volume at 1 mg/kg, ip pretreated for 1 hr followed by carrageenan administration and measured after 3 hrs by digital plethysmometer (reference value: 0.377 +/- 0.018 mL); type: functional; details: time 4 hrs
RAW264.7 [2] = experiment: Antioxidant activity in H2O2-stimulated mouse RAW264.7 cells assessed as protection against cell damage at 2 uM pretreated for 30 mins followed by H2O2 stimulation and measured after 4 hrs by MTT assay relative to control; type: functional; details: time 4.5 hrs
RAW264.7 [3] = experiment: Antiinflammatory activity in LPS-induced mouse RAW264.7 cells assessed as inhibition of NO production pretreated for 1 hr followed by LPS addition and measured after 24 hrs by griess reagent based assay; type: functional, cell-based
RAW264.7 [4] = experiment: Antiinflammatory activity in LPS-induced mouse RAW264.7 cells assessed as inhibition of NO production at 2 to 10 uM pretreated for 1 hr followed by LPS addition and measured after 24 hrs by griess reagent based assay; type: functional, cell-based; details: dose 2-10 µM, time 25.0 hrs
RAW264.7 [5] = experiment: Inhibition of ROS burst in rotenone-stimulated mouse RAW264.7 cells assessed as reduction in ROS level at 1 uM pretreated for 30 mins followed by rotenone addition and measured after 4 hrs by DCFH-DA staining based flow cytometry analysis relative to control; type: functional; details: time 4.5 hrs
RAW264.7 [6] = experiment: Antiinflammatory activity in LPS-induced mouse RAW264.7 cells assessed as reduction in TNF-alpha level incubated for 24 hrs by ELISA; type: functional, cell-based
RAW264.7 [7] = experiment: Antiinflammatory activity in LPS-induced mouse RAW264.7 cells assessed as inhibition of iNOS protein expression at around 2 uM incubated for 24 hrs by Western blot analysis relative to control; type: functional
Mus musculus [8] = experiment: Antiinflammatory activity in carrageenan-induced Kunming mouse model of paw edema assessed as paw volume at 30 mg/kg, ip pretreated for 1 hr followed by carrageenan administration and measured immediately by digital plethysmometer (reference value: 0.116 +/- 0.042 mL); type: functional
Mus musculus [9] = experiment: Antiinflammatory activity in carrageenan-induced Kunming mouse model of paw edema assessed as paw volume at 1 mg/kg, ip pretreated for 1 hr followed by carrageenan administration and measured after 5 hrs by digital plethysmometer (reference value: 0.362 +/- 0.016 mL); type: functional; details: time 6 hrs
Mus musculus [10] = experiment: Antiinflammatory activity in carrageenan-induced Kunming mouse model of paw edema assessed as edema inhibition at 10 mg/kg, ip pretreated for 1 hr followed by carrageenan administration and measured after 1 hr relative to control; type: functional; details: time 2 hrs
Mus musculus [11] = experiment: Antiinflammatory activity in carrageenan-induced Kunming mouse model of paw edema assessed as edema inhibition at 30 mg/kg, ip pretreated for 1 hr followed by carrageenan administration and measured after 1 hr relative to control; type: functional; details: time 2 hrs
Mus musculus [12] = experiment: Antiinflammatory activity in carrageenan-induced Kunming mouse model of paw edema assessed as edema inhibition at 1 mg/kg, ip pretreated for 1 hr followed by carrageenan administration and measured after 3 hrs relative to control; type: functional; details: time 4 hrs
Mus musculus [13] = experiment: Antiinflammatory activity in carrageenan-induced Kunming mouse model of paw edema assessed as edema inhibition at 30 mg/kg, ip pretreated for 1 hr followed by carrageenan administration and measured after 3 hrs relative to control; type: functional; details: time 4 hrs
Mus musculus [14] = experiment: Antiinflammatory activity in carrageenan-induced Kunming mouse model of paw edema assessed as edema inhibition at 1 mg/kg, ip pretreated for 1 hr followed by carrageenan administration and measured after 5 hrs relative to control; type: functional; details: time 6 hrs
Mus musculus [15] = experiment: Antiinflammatory activity in carrageenan-induced Kunming mouse model of paw edema assessed as edema inhibition at 30 mg/kg, ip pretreated for 1 hr followed by carrageenan administration and measured after 5 hrs relative to control; type: functional; details: time 6 hrs
Mus musculus [16] = experiment: Antiinflammatory activity in carrageenan-induced Kunming mouse model of paw edema assessed as paw volume at 30 mg/kg, IG pretreated for 1 hr followed by carrageenan administration and measured after 3 hrs by digital plethysmometer (reference value: 0.365 +/- 0.044 mL); type: functional; details: time 4 hrs
Mus musculus [17] = experiment: Antiinflammatory activity in carrageenan-induced Kunming mouse model of paw edema assessed as paw volume at 30 mg/kg, IG pretreated for 1 hr followed by carrageenan administration and measured after 5 hrs by digital plethysmometer (reference value: 0.353 +/- 0.024 mL); type: functional; details: time 6 hrs
Mus musculus [18] = experiment: Antiinflammatory activity in carrageenan-induced Kunming mouse model of paw edema assessed as edema inhibition at 30 mg/kg, IG pretreated for 1 hr followed by carrageenan administration and measured after 1 hr relative to control; type: functional; details: po, time 2 hrs
Mus musculus [19] = experiment: Antiinflammatory activity in carrageenan-induced Kunming mouse model of paw edema assessed as edema inhibition at 30 mg/kg, IG pretreated for 1 hr followed by carrageenan administration and measured after 3 hrs relative to control; type: functional; details: po, time 4 hrs
Mus musculus [20] = experiment: Antioxidant activity in ip dosed carrageenan-induced Kunming mouse model of paw edema assessed as increase in HO-1 protein expression in paw tissue pretreated for 1 hr followed by carrageenan administration and measured after 5 hrs by Western blot analysis; type: functional, organism-based; details: dose 1-30 mg/kg, time 6.0 hrs

Compound `O=C(/C=C/c1ccc(O)c(O)c1)NCCCN1CCc2cc(Cl)ccc21` has an Activity (Mus musculus [1]) of 0.267 mL, an Activity (RAW264.7 [2]) of about 100% and an IC50 (RAW264.7 [3]) of 900 nM. For the same compound, the Activity (RAW264.7 [4]) was “Active”, the inhibition at 1 µM (RAW264.7 [5]) was about 100% and the Activity (RAW264.7 [6]) was “Dose-Dependent Effect”. For the same compound, the IC50 (RAW264.7 [6]; RAW264.7, 24 h) was 1520 nM, the inhibition at 2 µM (RAW264.7 [7]) was 50% and the Activity (Mus musculus [8]) was 0.131 mL. For the same compound, the Activity (Mus musculus [9]) was 0.225 mL, the inhibition in vivo at 10 mg/kg (Mus musculus [10]) was 75.7% and the inhibition in vivo at 30 mg/kg (Mus musculus [11]) was 87.1%. For the same compound, the inhibition in vivo at 1 mg/kg (Mus musculus [12]) was 45.1%, the inhibition in vivo at 30 mg/kg (Mus musculus [13]) was 95.9% and the inhibition in vivo at 1 mg/kg (Mus musculus [14]) was 57.3%. For the same compound, the inhibition in vivo at 30 mg/kg (Mus musculus [15]) was 94.1%, the Activity (Mus musculus [16]) was 0.243 mL and the Activity (Mus musculus [17]) was 0.227 mL. For the same compound, the inhibition in vivo at 30 mg/kg (Mus musculus [18]) was 24.6%, the inhibition in vivo at 30 mg/kg (Mus musculus [19]) was 50% and the Activity (Mus musculus [20]) was “Dose-Dependent Effect”.
